Measurements from US4888333A, “Allymercaptoacetylsydnonimines, processes for their preparation, and their use” (Cassella Aktiengessellschaft, priority 1987, dated 1989).

system: pulmonary artery of the guinea pig; experiment: Relaxant effect: inhibition of CaCl2-triggered contraction of potassium-depolarized spiral strips of the pulmonary artery; assay type: cell-based; conditions: Cavia porcellus, calcium-free Tyrode's solution, 40 mmol/l potassium, 0.5 mmol/l CaCl2, mean of 4 to 6 vessel strips, read-out: IC50 (concentration of the test substance which inhibits contraction by 50%)
Excerpt: The pharmacological action of the compounds of the formula I was established using a modification of the method of Godfraind and Kaba (Arch. Int. Pharmacodyn. Ther. 196, (Suppl) 35 to 49, 1972) and of Schumann et al. (Naunyn-Schmiedeberg's Arch. Pharmacol. 289, 409 to 481, 1975). This entails spiral strips of the pulmonary artery of the guinea pig being equilibrated in calcium-free Tyrode's solution and then depolarized with 40 mmol/l of potassium. Addition of 0.5 mmol/l of CaCl2 then triggers a contraction. The relaxant effect of the test substance is established by cumulative addition of concentrations in 1/2 log 10 steps. The concentration of the test substance which inhibits contraction by 50% (=IC50, mol/l) is established from the concentration/effect graph (abscissa: -log mol/l test substance, ordinate: % inhibition of the maximum contraction, mean of 4 to 6 vessel strips).

IC50 [µM] | SMILES
20 | C=CCSCC(=O)[N-]c1c[n+](N2CCOCC2)no1 [Example 1, 3-Morpholino-N-allylmercaptoacetylsydononimine]
80 | C=CCSCC(=O)[N-]c1c[n+](N2CCN(C(=O)OCC)CC2)no1 [Example 2, 3-(4-Ethoxycarbonyl-1-piperazinyl)-N-allylmercaptoacetylsydnonimine]
30 | C=CCSCC(=O)[N-]c1c[n+](N2CCN(S(C)(=O)=O)CC2)no1 [Example 3, 3-(4-Methylsulphonyl-1-piperazinyl)-N-allylmercaptoacetylsydnonimine]
30 | C=CCSCC(=O)[N-]c1c[n+](N2CCN(S(=O)(=O)N(C)C)CC2)no1 [Example 4, 3-(4-Dimethylaminosulphonyl-1-piperazinyl)-N-allylmercaptoacetylsydnonimine]
30 | C=CCSCC(=O)[N-]c1c[n+](N2CCS(=O)(=O)CC2)no1 [Example 5, 3-(1,1-Dioxotetrahydro-1,4-thiazin-4-yl)-N-allylmercaptoacetylsydnonimine]
10 | C=CCSCC(=O)[N-]c1c[n+](N(C)C2CCS(=O)(=O)C2)no1 (stereo not shown) [Example 6, 3-(N-Methyl-N-1,1-dioxotetrahydro-3-thienylamino)-N-allylmercaptoacetylsydnonimine]
30 | C=CCSCC(=O)[N-]c1c[n+](N(C)C)no1 [Example 7, 3-Dimethylamino-N-allylmercaptoacetylsydnonimine]
20 | C=CCSCC(=O)[N-]c1c[n+](N2CCCCC2)no1 [Example 8, 3-Piperidino-N-allylmercaptoacetylsydnonimine]
100 | CCOC(=O)[N-]c1cn(N2CCOCC2)n[o+]1 [Molsidomine, N-ethoxycarbonyl-3-morpholinosydnonimine, reference compound]

same assay, conditions: calcium-free Tyrode's solution, 40 mmol/l potassium, 0.5 mmol/l CaCl2, mean of 4 to 6 vessel strips, read-out: IC50 (concentration of the test substance which inhibits contraction by 50%)

IC50 [µM] | SMILES
> 100 | CCOC(=O)[N-]c1cn(N2CCOCC2)n[o+]1 [Molsidomine, N-ethoxycarbonyl-3-morpholinosydnonimine, reference compound]
